This passage reports cleaved bond results from PMC11341654 (2024).

The nature of series [1]: UV irradiation in solution. The conditions noted are these: cited from earlier work.
Series [2] in a line: protonated peptides irradiated in the gas phase; VUV or soft X-ray photon, carbon ions. The conditions noted are these: cited from earlier work.
The nature of series [3]: isolated peptide ions in the gas phase (ion trap), UV photoabsorption at 220 nm. The following applies: up to 100–500 ms.
The nature of series [4]: deprotonated peptide anions in the gas phase, UV photoabsorption at 220 nm (ion trap). The following applies: up to 100–500 ms.
Series [5] in a line: gas phase; photoabsorption in the VUV as well as X-ray photon energy range (30 to 545 eV). The conditions noted are these: cited from earlier work.

On to (POG)10, for which the cleaved bond entry in series [1] is reported as “Gly-Pro, major”; in series [2] it was “Gly-Pro, major”.

Take (PPG)10: the cleaved bond result in series [1] is “Gly-Pro, major”; in series [2], “Gly-Pro, major”.

Take PGGPPGPKGNSGEPGAPGSKGDTGAK: the cleaved bond entry in series [3] is “Gly-Pro, major and Pro-Pro and Glu-Pro and Ala-Pro and Asp-Thr and K-G”; in series [4], “G-P and P-P and E-P and A-P”; in series [5] it was “Gly-Pro, major”.
